These results are taken from patent US6933261B2, “2,4,5-Trisubstituted phenylketoenols” (Bayer Aktiengesellschaft, priority 1995, dated 2005).

What all share (format): in vivo
Data set [1] deals with rice green leafhopper (Nephotettix cincticeps). The experiment in a line: Nephotettix test. As to conditions: after 6 days, active compound concentration 0.1%, dipped rice seedlings. On the procedure: (§1) Nephotettix Test • Solvent: 7 parts by weight of dimethylformamide • Emulsifier: 1 part by weight of alkylaryl polyglycol ether To produce a suitable preparation of active compound, 1 part by weight of active compound is mixed with the stated amount of solvent and the stated amount of emulsifier, and the concentrate is diluted with water to the desired concentration. Rice seedlings (Oryza sativa) are treated by being dipped into the preparation of active compound of the desired concentration and are infested with caterpillars of the rice green leafhopper (Nephotettix cincticeps) while the seedlings are still moist. After the specified periods of time, the destruction in % is determined. 100% means that all the caterpillars have been killed; 0% means that none of the caterpillars have been killed.

The subject of another data set is Beta vulgaris. The experiment in a line: Pre-emergence test (crop tolerance). To be noted: 500 g/ha. On the procedure:
(§2) • Solvent: 5 parts by weight of acetone • Emulsifier: 1 part by weight of alkylaryl polyglycol ether
(§3) To produce a suitable preparation of active compound, 1 part by weight of active compound is mixed with the stated amount of solvent, the stated amount of emulsifier is added and the concentrate is diluted with water to the desired concentration.
(§4) Seeds of the test plants are sown in normal soil and, after 24 hours, watered with the preparation of the active compound. It is expedient to keep constant the amount of water per unit area. The concentration of the active compound in the preparation is of no importance, only the amount of active compound applied per unit area being decisive.
(§5) After three weeks, the degree of damage to the plants is rated in % damage in comparison to the development of the untreated control.
(§6) The figures denote: • 0%=no action (like untreated control) • 100%=total destruction

The test system of data set [2] is caterpillars of the diamond-back moth (Plutella maculipennis). The experiment in a line: Plutella test. As to conditions: after 7 days, active compound concentration 0.1%, dipped cabbage leaves. As to the method: as §1, with “Plutella” for “Nephotettix”, “Cabbage leaves (Brassica oleracea)” for “Rice seedlings (Oryza sativa)”, “diamond-back moth (Plutella maculipennis)” for “rice green leafhopper (Nephotettix cincticeps)”, “leaves” for “seedlings”

The test system of data set [3] is caterpillars of the owlet moth (Spodoptera frugiperda). The experiment in a line: Spodoptera test. As to conditions: after 7 days, active compound concentration 0.1%, dipped cabbage leaves. On the procedure: as §1, with “Spodoptera” for “Nephotettix”, “Cabbage leaves (Brassica oleracea)” for “Rice seedlings (Oryza sativa)”, “owlet moth (Spodoptera frugiperda)” for “rice green leafhopper (Nephotettix cincticeps)”, “leaves” for “seedlings”

Another data set concerns Setaria viridis. The experiment in a line: Pre-emergence test. As to conditions: 500 g/ha, rated after three weeks vs untreated control. On the procedure:
as §2, §3, §4, §5, §6

The next data set deals with Avena fatua. The experiment in a line: Pre-emergence test. As to conditions: 500 g/ha, rated after three weeks vs untreated control. As to the method: as §2, §3, §4, §5, §6
The subject of the next data set is Alopecurus myosuroids. The experiment in a line: Pre-emergence test. To be noted: 500 g/ha, rated after three weeks vs untreated control. On the procedure:
as §2, §3, §4, §5, §6

Data set [4] concerns peach aphid (Myzus persicae). The experiment in a line: Myzus test. As to conditions: after 6 days, active compound concentration 0.1%, dipped cabbage leaves. On the procedure:
Myzus Test • Solvent: 7 parts by weight of dimethylformamide • Emulsifier: 1 part by weight of alkylaryl polyglycol ether To produce a suitable preparation of active compound, 1 part by weight of active compound is mixed with the stated amount of solvent and the stated amount of emulsifier, and the concentrate is diluted with water to the desired concentration. Cabbage leaves (Brassica oleracea) which are heavily infested by the peach aphid (Myzus persicae) are treated by being dipped into the preparation of the active compound of the desired concentration. After the specified periods of time, the destruction in % is determined. 100% means that all the caterpillars have been killed; 0% means that none of the caterpillars have been killed.

Data set [5] concerns mustard beetle larvae (Phaedon cochleariae). The experiment in a line: Phaedon larvae test. To be noted: after 7 days, active concentration 0.1%, dipped cabbage leaves. On the procedure:
Phaedon Larvae Test • Solvent: 7 parts by weight of dimethylformamide • Emulsifier: 1 part by weight of alkylaryl polyglycol ether To produce a suitable preparation of active compound, 1 part by weight of active compound is mixed with the stated amount of solvent and the stated amount of emulsifier, and the concentrate is diluted with water to the desired concentration. Cabbage leaves (Brassica oleracea) are treated by being dipped into the preparation of the active compound of the desired concentration and are infested with mustard beetle larvae (Phaedon cochleariae), as long as the leaves are still moist. After the specified periods of time, the destruction in % is determined. 100% means that all the beetle larvae have been killed; 0% means that none of the beetle larvae have been killed.

In data set [6] the test system is Boophilus microplus resistant/SP-resistant Parkhurst strain, adult satiated females. The experiment in a line: Test with Boophilus microplus resistant/SP-resistant Parkhurst strain. To be noted: 20 μg per animal, injected into the abdomen. As to the method:
Test with Boophilus microplus Resistant/SP-resistant Parkhurst Strain
• Test animals: Adult satiated females • Solvent: Dimethyl sulphoxide
20 mg of active compound are dissolved in 1 ml of dimethyl sulphoxide, and lower concentrations are prepared by dilution in the same solvent.
The test is carried out as a 5-fold determination. 1 μl of the solutions is injected into the abdomen and the animals are transferred to dishes and kept in a climatically controlled room. The action is determined via the inhibition of oviposition. 100% means that no tick has laid.

Data set [7] relates to All larval stages of Lucilia cuprina (OP-resistant). The experiment in a line: Test with fly larvae/development-inhibiting action. As to conditions: active compound concentration 1000 ppm, read-out: action (larvicidal / development-inhibiting). On the procedure:
Test with Fly Larvae/Development-Inhibiting Action
• Test animals: All larval stages of Lucilia cuprina (OP-resistant) [pupae and adults (without contact with the active compound)] • Solvent: 35 parts by weight of ethylene glycol monomethyl ether 35 parts by weight of nonylphenol polyglycol ether
To produce a suitable formulation, 3 parts by weight of active compound are mixed with seven parts of the abovementioned solvent/emulsifier mixture and the emulsion concentrate thus obtained is diluted with water to the particular desired concentration.
30 to 50 larvae per concentration are introduced onto horse-meat (1 cm^3), in glass tubes, onto which 500 μl of the dilution to be tested are pipetted. The glass tubes are placed in plastic beakers, the base of which is covered with beach sand, and are stored in a climatically controlled room (26° C.±1.5° C., 70% relative humidity±10%). The action is checked after 24 hours and 48 hours (larvicidal action). After emergence of the larvae (about 72 hours), the glass tubes are removed and perforated plastic lids are placed on the beakers. After 1½ times the development period (hatching of the control flies), the flies which have hatched and the pupae/pupae cases are counted. […]

In data set [1], `COC1CCC2(CC1)NC(=O)C(c1cc(C)c(C)cc1C)=C2OC(=O)OCC(C)C` (single isomer, unassigned) [Example I-1-c-3] came in with a destruction of 100%.
For the compound `Cc1cc(C)c(-c2c(O)c(C)c(-c3ccc(F)cc3)oc2=O)cc1C` [Example I-4-a-3], the destruction in data set [1], in [2] and in data set [3] was 100% in each case. The “tolerance by crop plant” value with Beta vulgaris was “good tolerance”. The damage with Setaria viridis is reported as 95%; with Avena fatua, 96%; in the data set on Alopecurus myosuroids it was 90%.
As to `COC1CCC2(CC1)NC(=O)C(c1cc(C)c(C)cc1C)=C2OC(=O)OCC(C)C` (single isomer, unassigned) [Example I-1-c-2], the destruction in data set [4] and in data set [1] was 100% in each case.
For the compound `COC1CCC2(CC1)NC(=O)C(c1cc(C)c(C)cc1C)=C2OC(=O)C(C)C` (single isomer, unassigned) [Example I-1-b-3], the destruction in [4] and in data set [1] was 100% throughout.
In the case of `Cc1cc(C)c(C2=C(O)C3(CCC(C)CC3)NC2=O)cc1C` (centres unmarked) [Example I-1-a-1], the destruction in [1], in data set [2] and in data set [3] was 100% each time.
In data set [1], `CC(=O)OC1=C(c2cc(C)c(C)cc2C)C(=O)NC12CCC(C)CC2` (centres unmarked) [Example I-1-b-1] registered a destruction of 100%.
Take `COC1CCC2(CC1)OC(=O)C(c1cc(C)c(C)cc1C)=C2OC(=O)C(C)(C)C` (centres unmarked) [Example I-2-b-5]: in [1], the destruction was determined as 100%.
As to `CC(=O)Oc1c2c(oc(=O)c1-c1cc(C)c(C)cc1C)C(C)(C)OC2(C)C` [Example I-4-b-1], the destruction in data set [2], in data set [3] and in [5] was 100% throughout. Further, in data set [6], the “action (inhibition of oviposition)” value is 100%.
In data set [1], `Cc1cc(C)c(C2=C(O)C3(CCC(C)CC3)OC2=O)cc1C` (centres unmarked) [Example I-2-a-2] came in with a destruction of 100%.
Same read-out and setting: the value for `COC1CCC2(CC1)OC(=O)C(c1cc(C)c(C)cc1C)=C2O` (centres unmarked) [Example I-2-a-3] was 100%.
In data set [4], `Cc1cc(C)c(C2=C(O)C3(CCCCC3)OC2=O)cc1C` [Example I-2-a-1] yielded a destruction of 100%.
As to `Cc1cc(C)c(C2=C(OC(=O)C(C)C)C3(CCC(C)CC3)NC2=O)cc1C` (single isomer, unassigned) [Example I-1-b-2], the destruction in data set [4], in data set [1], in [2] and in [3] was 100% throughout.
Regarding `Cc1cc(C)c(-c2c(O)c3c(oc2=O)C(C)(C)OC3(C)C)cc1C` [Example I-4-a-1], in data set [7], the inhibition at 1000 ppm is 100%. Further, the destruction in [2] and in data set [3] was 100% each time. The “action (inhibition of oviposition)” value in data set [6] is recorded as 100%.
Take `CCOC(=O)OC1=C(c2cc(C)c(C)cc2C)C(=O)NC12CCC(C)CC2` (centres unmarked) [Example I-1-c-1]: the destruction in data set [1] and in data set [2] was 100% in each case.
Regarding `Cc1cc(C)c(-c2c(O)c(C)c(-c3ccccn3)oc2=O)cc1C` [Example I-4-a-4], the destruction in [4], in [1], in [2], in data set [3] and in data set [5] was 100% throughout.
Take `COC1CCC2(CC1)OC(=O)C(c1cc(C)c(C)cc1C)=C2OC(=O)C(C)C` (centres unmarked) [Example I-2-b-4]: the destruction in data set [4] and in data set [1] was 100% throughout.
